Test results from US10214512B2, “Factor XIA inhibitors” (MERCK SHARP & DOHME CORP., priority 2015, dated 2019).

How the values were obtained:
[1] = molecular target: purified human Factor XIa (Homo sapiens (Human), UniProt P03951); test: Factor XIa Assay; format: biochemical; details: purified human Factor XIa 40 pM; substrate Z-Gly-Pro-Arg-AFC 100 μM; 50 mM HEPES pH 7.4; read-out: Human FXIa Ki
Outline: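 Purified human FXIa at 40 pM final with fluorogenic Z-Gly-Pro-Arg-AFC at 100 μM, in 50 mM HEPES pH 7.4, 150 mM NaCl, 5 mM CaCl2, 0.1% PEG 8000, at rt or 37° C. Initial velocities measured after enzyme–inhibitor equilibration; Ki derived from Vo/Vi versus [I] assuming competitive inhibition.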

[2] = molecular target: purified Human plasma Kallikrein (Homo sapiens (Human), UniProt P03952); test: Kallikrein Assay; format: biochemical; details: purified Human plasma Kallikrein 0.5 nM; substrate Acetyl-K-P-R-AFC; 50 mM HEPES pH 7.4; Ki from IC50 by Cheng Prusoff
Sequence of purified Human plasma Kallikrein (P03952 391-638): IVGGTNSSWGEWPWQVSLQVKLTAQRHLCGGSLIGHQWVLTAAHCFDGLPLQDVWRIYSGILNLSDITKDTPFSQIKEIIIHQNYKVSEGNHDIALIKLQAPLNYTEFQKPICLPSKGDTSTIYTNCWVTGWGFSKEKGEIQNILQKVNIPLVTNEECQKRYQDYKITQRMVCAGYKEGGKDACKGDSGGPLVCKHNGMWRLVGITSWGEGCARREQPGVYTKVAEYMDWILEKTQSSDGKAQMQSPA
Sequence of purified Human plasma Kallikrein (P03952 20-390 partner): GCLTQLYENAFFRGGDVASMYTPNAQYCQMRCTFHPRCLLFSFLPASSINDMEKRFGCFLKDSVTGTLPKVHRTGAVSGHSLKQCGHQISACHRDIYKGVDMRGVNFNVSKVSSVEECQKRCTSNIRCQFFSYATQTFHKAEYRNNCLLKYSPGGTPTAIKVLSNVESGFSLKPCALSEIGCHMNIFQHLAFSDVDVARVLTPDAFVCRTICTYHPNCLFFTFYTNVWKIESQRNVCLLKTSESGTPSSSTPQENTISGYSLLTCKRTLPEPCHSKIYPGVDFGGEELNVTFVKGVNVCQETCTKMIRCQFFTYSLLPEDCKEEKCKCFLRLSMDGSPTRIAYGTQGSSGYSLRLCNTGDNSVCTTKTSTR
Outline: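 Purified human plasma kallikrein (0.5 nM) with fluorogenic Ac-K-P-R-AFC ([…]) in 50 mM HEPES pH 7.4, 150 mM NaCl, 5 mM CaCl2, 0.1% PEG 8000, at rt or 37 °C. Substrate hydrolysis rate read with and without inhibitor; IC50 from four-parameter logistic fit, converted to Ki by Cheng–Prusoff.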

Sequence of purified human Factor XIa (P03951 388-625): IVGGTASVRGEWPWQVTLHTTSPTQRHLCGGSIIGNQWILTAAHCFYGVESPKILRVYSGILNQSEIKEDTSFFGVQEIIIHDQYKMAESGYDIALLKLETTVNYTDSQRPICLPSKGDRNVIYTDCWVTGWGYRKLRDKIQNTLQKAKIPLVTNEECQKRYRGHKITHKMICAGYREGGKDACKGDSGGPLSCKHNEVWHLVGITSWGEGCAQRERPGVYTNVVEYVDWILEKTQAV
Sequence of purified human Factor XIa (P03951 19-387 partner): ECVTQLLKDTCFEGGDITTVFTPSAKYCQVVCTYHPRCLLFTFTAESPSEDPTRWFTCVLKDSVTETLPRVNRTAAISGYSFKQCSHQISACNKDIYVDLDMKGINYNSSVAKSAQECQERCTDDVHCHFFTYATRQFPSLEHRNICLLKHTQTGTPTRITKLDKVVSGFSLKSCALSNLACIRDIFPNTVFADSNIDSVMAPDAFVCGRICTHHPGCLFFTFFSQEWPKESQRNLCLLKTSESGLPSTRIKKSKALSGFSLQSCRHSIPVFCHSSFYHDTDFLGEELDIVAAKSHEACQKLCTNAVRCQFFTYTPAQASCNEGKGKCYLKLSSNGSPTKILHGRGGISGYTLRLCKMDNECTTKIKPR

Row | Ki [1] | Ki [2] | SMILES
1 | 0.54 nM | 1.68 nM | COC(=O)Nc1ccc2c(c1)NC(=O)CCCC[C@H](c1ccc(-c3c(F)cccc3F)c[n+]1[O-])c1nc-2c(C)[nH]1 (single isomer, unassigned) [Example 119]
2 | 0.46 nM | 5.08 nM | CCc1[nH]c2nc1-c1ccc(NC(=O)OC)cc1NC(=O)CCCC[C@@H]2c1ccc(-c2cc(F)ccc2OC(F)(F)F)c[n+]1[O-] (single isomer, unassigned) [Example 133]
3 | 0.14 nM | 0.74 nM | Cc1[nH]c2nc1-c1ccc(N)cc1NC(=O)CCCC[C@@H]2c1ccc(-c2c(F)ccc(Cl)c2F)c[n+]1[O-] (single isomer, unassigned) [Example 128]
4 | 0.39 nM | 13.6 nM | O=C1CCCCC(c2ccc(-c3cc(F)ccc3-n3cnnn3)c[n+]2[O-])c2cccc(c2)-c2cc(F)ccc2N1 (single isomer, unassigned) [Example 89-a, 5-(5-fluoro-2-(1H-tetrazol-1-yl)phenyl)-2-(2^5-fluoro-4-oxo-3-aza-1(1,3),2(1,2)-dibenzenacyclononaphane-9-yl)pyridine 1-oxide]
5 | 0.97 nM | 2.59 nM | COC(=O)Nc1cc(F)c2c(c1)NC(=O)C(C)CCCC(c1ccc(-c3c(F)ccc(Cl)c3F)c[n+]1[O-])c1cccc-2c1 (single isomer, unassigned) [Example 85-c, 5-(3-Chloro-2,6-difluorophenyl)-2-(2^6-fluoro-2^4-((methoxycarbonyl)amino)-5-methyl-4-oxo-3-aza-1(1,3),2(1,2)-dibenzenacyclononaphane-9-yl)pyridine 1-oxide]
6 | 1.37 nM | 376 nM | O=C1CCCC[C@H](c2ccc(-c3cc(Cl)ccc3-n3cc(C(F)(F)F)cn3)c[n+]2[O-])c2cccc(c2)-c2c(cnn2C(F)F)N1 (single isomer, unassigned) [Example 167]
7 | 0.14 nM | 1.39 nM | C[C@@H]1CCC[C@H](c2ccc(-c3cc(Cl)ccc3-n3cc(Cl)nn3)c[n+]2[O-])c2cccc(c2)-c2c(cnn2C(F)F)NC1=O (single isomer, unassigned) [Example 166-a]
8 | 1.4 nM | 5.92 nM | COC(=O)Nc1ccc2c(c1)NC(=O)[C@@H](C)CCC[C@@H](c1ccc(-c3c(F)cccc3F)c[n+]1[O-])c1nc-2c(C)[nH]1 (single isomer, unassigned) [Example 143-c]
9 | 0.17 nM | 1.21 nM | COC(=O)Nc1ccc2c(c1)NC(=O)CCCCC(c1ccc(-c3cc(Cl)ccc3OC(F)(F)F)c[n+]1[O-])c1nc-2c[nH]1 (single isomer, unassigned) [Example 99-a, (Z)-5-(5-chloro-2-(trifluoromethoxy)phenyl)-2-(2^4-((methoxycarbonyl)amino)-4-oxo-1^1H-3-aza-1(4,2)-imidazola-2(1,2) -benzenacyclononaphane-9-yl)pyridine 1-oxide]
10 | 0.43 nM | 3.9 nM | COC(=O)Nc1ccc2c(c1)NC(=O)CCCC[C@H](c1ccc(-c3ccccc3C(F)(F)F)c[n+]1[O-])c1nc-2c(C)[nH]1 (single isomer, unassigned) [Example 121]
11 | 0.33 nM | 1.61 nM | COC(=O)Nc1ccc2c(c1)NC(=O)[C@@H](C)CCC[C@H](c1ccc(-c3c(F)cccc3F)c[n+]1[O-])c1nc-2c(C)[nH]1 (single isomer, unassigned) [Example 143-a]

The next lines start with the compound.

Row | SMILES | Ki [1] | Ki [2]
12 | COC(=O)Nc1cc(F)c2c(c1)NC(=O)C(C)CCCC(c1ccc(-c3c(F)ccc(Cl)c3F)c[n+]1[O-])c1cccc-2c1 (single isomer, unassigned) [Example 85-b, 5-(3-Chloro-2,6-difluorophenyl)-2-(2^6-fluoro-2^4-((methoxycarbonyl)amino)-5-methyl-4-oxo-3-aza-1(1,3),2(1,2)-dibenzenacyclononaphane-9-yl)pyridine 1-oxide] | 6 nM | 15.2 nM
13 | COC(=O)Nc1ccc2c(c1)NC(=O)CCCCC(c1ccc(-c3c(F)ccc(Cl)c3F)c[n+]1[O-])c1cccc-2c1 (single isomer, unassigned) [Example 13-a, 5-(3-Chloro-2,6-difluorophenyl)-2-(2^4-((methoxycarbonyl)amino)-4-oxo-3-aza-1(1,3),2(1,2)-dibenzenacyclononaphane-9-yl)pyridine 1-oxide] | 0.36 nM | 1.55 nM
14 | COC(=O)Nc1ccc2c(c1)NC(=O)CCCCC(c1ccc(-c3cc(Cl)ccc3-n3cc(C(F)F)nn3)c[n+]1[O-])c1cccc-2c1 (single isomer, unassigned) [Example 36-a, 5-(5-chloro-2-(4-(difluoromethyl)-1H-1,2,3-triazol-1-yl)phenyl)-2-(2^4-((methoxycarbonyl)amino)-4-oxo-3-aza-1(1,3),2(1,2)-dibenzenacyclononaphane-9-yl)pyridine 1-oxide] | 0.26 nM | 0.81 nM
15 | O=C1CCCCC(c2ccc(-c3cc(Cl)ccc3-n3cnnn3)cn2)c2ccnc(c2)-c2cc(F)ccc2N1 (stereo not drawn) [Example 56, 9-(5-(5-chloro-2-(1h-tetrazol-1-yl)phenyl)pyridin-2-yl)-25-fluoro-3-aza-1(2,4)-pyridina-2(1,2)-benzenacyclononaphan-4-one] | 14.1 nM | 149 nM
16 | COC(=O)Nc1ccc2c(c1)NC(=O)CCCC[C@H](c1ccc(-c3cc(Cl)ccc3-n3cc(C(F)(F)F)nn3)c[n+]1[O-])c1cccc-2c1 [Example 39, (S)-5-(5-chloro-2-(4-(trifluoromethyl)-1H-1,2,3-triazol-1-yl)phenyl)-2-(2^4-((methoxycarbonyl)amino)-4-oxo-3-aza-1(1,3),2(1,2)-dibenzenacyclononaphane-9-yl)pyridine 1-oxide] | 0.26 nM | 0.81 nM
17 | COC(=O)Nc1ccc2c(c1)NC(=O)CCCC[C@H](c1ccc(-c3cc(Cl)ccc3C(F)(F)F)c[n+]1[O-])c1cccc-2c1 (single isomer, unassigned) [Example 32] | 0.83 nM | 2.95 nM
18 | O=C1CCCCC(c2ccc(-c3cc(Cl)cc(F)c3-n3cnnn3)c[n+]2[O-])c2cccc(c2)-c2cc(F)ccc2N1 (single isomer, unassigned) [Example 7-a, 5-(5-chloro-3-fluoro-2-(1H-tetrazol-1-yl)phenyl)-2-(2^5-fluoro-4-oxo-3-aza-1(1,3),2(1,2)-dibenzenacyclononaphane-9-yl)pyridine 1-oxide] | 2.4 nM | 238 nM
19 | COC(=O)Nc1ccc2c(c1)NC(=O)CCCCC(c1ccc(-c3cc(Cl)ccc3-n3cnnn3)c[n+]1[O-])c1cccc-2c1 (single isomer, unassigned) [Example 6-a, 5-(5-Chloro-2-(1H-tetrazol-1-yl)phenyl)-2-(2^4-((methoxycarbonyl)amino)-4-oxo-3-aza-1(1,3),2(1,2) -dibenzenacyclononaphane-9-yl)pyridine 1-oxide] | 0.1 nM | 0.29 nM
20 | COC(=O)Nc1ccc2c(c1)NC(=O)CCCC[C@H](c1ccc(-c3cc(Cl)ccc3-c3cnn(C(F)F)c3)c[n+]1[O-])c1cccc-2c1 (single isomer, unassigned) [Example 42] | 0.44 nM | 3.1 nM
21 | O=C1CCCCC(c2ccc(-c3c(-n4cnnn4)ccc(Cl)c3F)c[n+]2[O-])c2cccc(c2)-c2cc(C(=O)O)ccc2N1 (single isomer, unassigned) [Example 5-a, 2-(2^5-carboxy-4-oxo-3-aza-1(1,3),2(1,2)-dibenzenacyclononaphane-9-yl)-5-(3-chloro-2-fluoro-6-(1H-tetrazol-1-yl)phenyl)pyridine 1-oxide] | 0.13 nM | 3.15 nM
